Measurements: ChEMBL document CHEMBL6078622, “Enhancing outer membrane permeability of tetracycline antibiotics in P. aeruginosa using TOB-CIP conjugates” (RSC Med Chem, 2024)
Calls of active or inactive are those of the source. The calls are words filed in the database; no cut-off is given here.

How the values were obtained:
[1] = test system: Pseudomonas aeruginosa; experiment: Antibacterial activity against Pseudomonas aeruginosa PA114228 assessed as inhibition of visible bacterial growth by CLSI based broth-microdilution method; assay type: functional
[2] = test system: Pseudomonas aeruginosa; experiment: Synergistic antibacterial activity against Pseudomonas aeruginosa PA101243 assessed as fractional inhibitory concentration index in presence of minocycline by checkerboard assay; assay type: functional
[3] = test system: Pseudomonas aeruginosa; experiment: Antibacterial activity against Pseudomonas aeruginosa PA259 assessed as minocycline MIC by CLSI based broth-microdilution method; assay type: functional
[4] = test system: Pseudomonas aeruginosa; experiment: Antibacterial activity against Pseudomonas aeruginosa PA101243 assessed as tigecycline MIC by CLSI based broth-microdilution method; assay type: functional
[5] = test system: Pseudomonas aeruginosa; experiment: Antibacterial activity against Pseudomonas aeruginosa PA095 assessed as eravacycline MIC by CLSI based broth-microdilution method; assay type: functional
[6] = test system: Pseudomonas aeruginosa; experiment: Synergistic antibacterial activity against Pseudomonas aeruginosa PA100036 in presence of doxycycline by checkerboard assay; assay type: functional
[7] = test system: Pseudomonas aeruginosa; experiment: Synergistic antibacterial activity against Pseudomonas aeruginosa PA114228 in presence of doxycycline by checkerboard assay; assay type: functional
[8] = test system: Pseudomonas aeruginosa; experiment: Antibacterial activity against Pseudomonas aeruginosa PA100036 assessed as eravacycline MIC by CLSI based broth-microdilution method; assay type: functional
[9] = test system: Pseudomonas aeruginosa; experiment: Synergistic antibacterial activity against Pseudomonas aeruginosa PA262 assessed as fractional inhibitory concentration index in presence of minocycline by checkerboard assay; assay type: functional
[10] = test system: Pseudomonas aeruginosa; experiment: Synergistic antibacterial activity against Pseudomonas aeruginosa PA100036 assessed as fractional inhibitory concentration index in presence of minocycline by checkerboard assay; assay type: functional
[11] = test system: Pseudomonas aeruginosa; experiment: Antibacterial activity against Pseudomonas aeruginosa PA100036 assessed as doxycycline MIC by CLSI based broth-microdilution method; assay type: functional
[12] = test system: Pseudomonas aeruginosa; experiment: Synergistic antibacterial activity against Pseudomonas aeruginosa PA264 assessed as fractional inhibitory concentration index in presence of tigecycline by checkerboard assay; assay type: functional
[13] = test system: Pseudomonas aeruginosa; experiment: Synergistic antibacterial activity against Pseudomonas aeruginosa PA200 in presence of tigecycline by checkerboard assay; assay type: functional
[14] = test system: Pseudomonas aeruginosa; experiment: Antibacterial activity against Pseudomonas aeruginosa PA264 assessed as inhibition of visible bacterial growth by CLSI based broth-microdilution method; assay type: functional
[15] = test system: Pseudomonas aeruginosa; experiment: Synergistic antibacterial activity against Pseudomonas aeruginosa PA262 assessed as fractional inhibitory concentration index in presence of eravacycline by checkerboard assay; assay type: functional
[16] = test system: Pseudomonas aeruginosa; experiment: Antibacterial activity against Pseudomonas aeruginosa PAO1 assessed as inhibition of bacterial growth by measuring fold change in MIC in presence of 50 % fetal bovine serum by CLSI protocol based assay; assay type: functional
[17] = test system: Pseudomonas aeruginosa; experiment: Antibacterial activity against Pseudomonas aeruginosa PA100036 assessed as minocycline MIC by CLSI based broth-microdilution method; assay type: functional
[18] = test system: Pseudomonas aeruginosa; experiment: Antibacterial activity against Pseudomonas aeruginosa PA264 assessed as minocycline MIC by CLSI based broth-microdilution method; assay type: functional
[19] = test system: Pseudomonas aeruginosa; experiment: Synergistic antibacterial activity against Pseudomonas aeruginosa PA095 in presence of doxycycline by checkerboard assay; assay type: functional
[20] = test system: Pseudomonas aeruginosa; experiment: Synergistic antibacterial activity against Pseudomonas aeruginosa PA095 assessed as fold change in eravacycline MIC by CLSI based broth-microdilution method relative to eravacycline alone; assay type: functional
[21] = test system: Pseudomonas aeruginosa; experiment: Synergistic antibacterial activity against Pseudomonas aeruginosa PA101243 assessed as fold change in doxycycline MIC by CLSI based broth-microdilution method relative to doxycycline alone; assay type: functional
[22] = test system: Escherichia coli; experiment: Antibacterial activity against Escherichia coli ATCC 25922 assessed as inhibition of visible bacterial growth by CLSI based broth-microdilution method; assay type: functional
[23] = test system: Pseudomonas aeruginosa; experiment: Synergistic antibacterial activity against Pseudomonas aeruginosa PA259 assessed as fold change in eravacycline MIC by CLSI based broth-microdilution method relative to eravacycline alone; assay type: functional
[24] = test system: Pseudomonas aeruginosa; experiment: Synergistic antibacterial activity against Pseudomonas aeruginosa PA200 assessed as fractional inhibitory concentration index in presence of doxycycline by checkerboard assay; assay type: functional
[25] = test system: Pseudomonas aeruginosa; experiment: Synergistic antibacterial activity against Pseudomonas aeruginosa PA200 assessed as fold change in eravacycline MIC by CLSI based broth-microdilution method relative to eravacycline alone; assay type: functional
[26] = test system: Pseudomonas aeruginosa; experiment: Synergistic antibacterial activity against Pseudomonas aeruginosa PA095 assessed as fractional inhibitory concentration index in presence of minocycline by checkerboard assay; assay type: functional
[27] = test system: Pseudomonas aeruginosa; experiment: Synergistic antibacterial activity against Pseudomonas aeruginosa PA259 in presence of eravacycline by checkerboard assay; assay type: functional
[28] = test system: Pseudomonas aeruginosa; experiment: Synergistic antibacterial activity against Pseudomonas aeruginosa PA114228 assessed as fractional inhibitory concentration index in presence of doxycycline by checkerboard assay; assay type: functional
[29] = test system: Pseudomonas aeruginosa; experiment: Synergistic antibacterial activity against Pseudomonas aeruginosa PA095 assessed as fractional inhibitory concentration index in presence of tigecycline by checkerboard assay; assay type: functional
[30] = test system: Pseudomonas aeruginosa; experiment: Antibacterial activity against Pseudomonas aeruginosa PA262 assessed as doxycycline MIC by CLSI based broth-microdilution method; assay type: functional
[31] = test system: HepG2; experiment: Cytotoxicity against human HepG2 cells assessed as reduction in cell viability at 400 uM; assay type: functional, cell-based
[32] = test system: Pseudomonas aeruginosa; experiment: Synergistic antibacterial activity against Pseudomonas aeruginosa PA101243 in presence of minocycline by checkerboard assay; assay type: functional
[33] = test system: Pseudomonas aeruginosa; experiment: Antibacterial activity against Pseudomonas aeruginosa PA262 assessed as tigecycline MIC by CLSI based broth-microdilution method; assay type: functional
[34] = test system: Pseudomonas aeruginosa; experiment: Synergistic antibacterial activity against Pseudomonas aeruginosa PA264 in presence of minocycline by checkerboard assay; assay type: functional
[35] = test system: Pseudomonas aeruginosa; experiment: Synergistic antibacterial activity against Pseudomonas aeruginosa PA262 in presence of doxycycline by checkerboard assay; assay type: functional
[36] = test system: Pseudomonas aeruginosa; experiment: Synergistic antibacterial activity against Pseudomonas aeruginosa PA259 assessed as fractional inhibitory concentration index in presence of doxycycline by checkerboard assay; assay type: functional
[37] = test system: Pseudomonas aeruginosa; experiment: Synergistic antibacterial activity against Pseudomonas aeruginosa PA095 in presence of eravacycline by checkerboard assay; assay type: functional
[38] = test system: Pseudomonas aeruginosa; experiment: Antibacterial activity against Pseudomonas aeruginosa PA264 assessed as reduction in bacterial load incubated for 2 hrs in presence of eravacycline by time kill assay; assay type: functional, organism-based
[39] = test system: Pseudomonas aeruginosa; experiment: Synergistic antibacterial activity against Pseudomonas aeruginosa PA259 in presence of doxycycline by checkerboard assay; assay type: functional
[40] = test system: Pseudomonas aeruginosa; experiment: Synergistic antibacterial activity against Pseudomonas aeruginosa PA095 assessed as fold change in minocycline MIC by CLSI based broth-microdilution method relative to minocycline alone; assay type: functional
[41] = test system: Pseudomonas aeruginosa; experiment: Synergistic antibacterial activity against Pseudomonas aeruginosa PA100036 assessed as fold change in minocycline MIC by CLSI based broth-microdilution method relative to minocycline alone; assay type: functional
[42] = test system: Acinetobacter baumannii; experiment: Antibacterial activity against Acinetobacter baumannii ATCC 17978 assessed as inhibition of visible bacterial growth by CLSI based broth-microdilution method; assay type: functional
[43] = test system: Pseudomonas aeruginosa; experiment: Antibacterial activity against Pseudomonas aeruginosa PA259 assessed as eravacycline MIC by CLSI based broth-microdilution method; assay type: functional
[44] = test system: Pseudomonas aeruginosa; experiment: Synergistic antibacterial activity against Pseudomonas aeruginosa PA200 assessed as fractional inhibitory concentration index in presence of eravacycline by checkerboard assay; assay type: functional
[45] = test system: Pseudomonas aeruginosa; experiment: Antibacterial activity against Pseudomonas aeruginosa PA262 assessed as inhibition of visible bacterial growth by CLSI based broth-microdilution method; assay type: functional
[46] = test system: Pseudomonas aeruginosa; experiment: Synergistic antibacterial activity against Pseudomonas aeruginosa PA259 assessed as fractional inhibitory concentration index in presence of tigecycline by checkerboard assay; assay type: functional
[47] = test system: Pseudomonas aeruginosa; experiment: Antibacterial activity against Pseudomonas aeruginosa PA200 assessed as inhibition of visible bacterial growth by CLSI based broth-microdilution method; assay type: functional

Cl.Cl.Cl.Cl.Cl.Cl.NC[C@H]1O[C@H](O[C@H]2[C@H](OCCCCCCCCCCCCNC(=O)c3cn(C4CC4)c4cc(N5CCNCC5)c(F)cc4c3=O)[C@@H](O[C@H]3O[C@H](CO)[C@@H](O)[C@H](N)[C@H]3O)[C@H](N)C[C@@H]2N)[C@H](N)C[C@@H]1O
MIC [1]: > 128 µg/mL
fractional inhibitory concentration index (FICI) [2]: 0.25
MIC [3]: 0.25 µg/mL
MIC [4]: 4 µg/mL
MIC [5]: 1 µg/mL
MIC [6]: 8 µg/mL
MIC [7]: 8 µg/mL
MIC [8]: 0.125 µg/mL
fractional inhibitory concentration index (FICI) [9]: 0.008
fractional inhibitory concentration index (FICI) [10]: 0.015
MIC [11]: 1 µg/mL
fractional inhibitory concentration index (FICI) [12]: 0.004
MIC [13]: 8 µg/mL
MIC [14]: > 128 µg/mL
fractional inhibitory concentration index (FICI) [15]: 0.062
fold change (FC) [16]: 1
MIC [17]: 0.25 µg/mL
MIC [18]: 0.5 µg/mL
MIC [19]: 2 µg/mL
fold change (FC) [20]: 4
fold change (FC) [21]: 2
MIC [22]: > 128 µg/mL
fold change (FC) [23]: 512
fractional inhibitory concentration index (FICI) [24]: 0.257
fold change (FC) [25]: 128
fractional inhibitory concentration index (FICI) [26]: 0.5
MIC [27]: 8 µg/mL
fractional inhibitory concentration index (FICI) [28]: 0.004
fractional inhibitory concentration index (FICI) [29]: 0.265
MIC [30]: 8 µg/mL
Activity [31]: Active
MIC [32]: 8 µg/mL
MIC [33]: 2 µg/mL
MIC [34]: 8 µg/mL
MIC [35]: 8 µg/mL
fractional inhibitory concentration index (FICI) [36]: 0.008
MIC [37]: 2 µg/mL
Activity [38]: Active
MIC [39]: 8 µg/mL
fold change (FC) [40]: 8
fold change (FC) [41]: 256
MIC [42]: > 128 µg/mL
MIC [43]: 0.062 µg/mL
fractional inhibitory concentration index (FICI) [44]: 0.156
MIC [45]: > 128 µg/mL
fractional inhibitory concentration index (FICI) [46]: 0.002
MIC [47]: 32 µg/mL
